Publication PMC5537602, “TRPA1 channel mediates organophosphate-induced delayed neuropathy” (Cell Discovery, 2017)
Like-named read-outs stand apart in the source and are kept apart here.

How the values were obtained:
mice [1] = assay: Transmission electron microscopy of local nerve fibers in mice; type: in vivo, mouse; conditions: WT mice; plantar injection, 5% AITC or 30% malathion
Experimental: For mice, subcutaneous tissue from the site of exposure was removed and fixed by immediate immersion in ice-cold 2.5% glutaraldehyde. Subsequently, the samples were post-fixed in 1% OsO4 for 1 h, dehydrated with an ethanol series and embedded in epon resin. Sixty-nanometer ultra-thin sections were double stained with lead citrate and uranyl acetate and examined using an electron microscopy.

hTRPA1 = target: T1, hTRPA1 (Homo sapiens, UniProt O75762); assay: cell-based; type: cell-based; conditions: for activation of hTRPA1 whole-cell currents: 30 μM, calcium-free external solution; for activation of hTRPA1 whole-cell currents by NTE inhibitors: 100 μM
T1 construct: expressed in transfected cells; host or cells: HEK293, transient, EGFP plasmid co-transfected
T1 sequence (O75762 whole entry): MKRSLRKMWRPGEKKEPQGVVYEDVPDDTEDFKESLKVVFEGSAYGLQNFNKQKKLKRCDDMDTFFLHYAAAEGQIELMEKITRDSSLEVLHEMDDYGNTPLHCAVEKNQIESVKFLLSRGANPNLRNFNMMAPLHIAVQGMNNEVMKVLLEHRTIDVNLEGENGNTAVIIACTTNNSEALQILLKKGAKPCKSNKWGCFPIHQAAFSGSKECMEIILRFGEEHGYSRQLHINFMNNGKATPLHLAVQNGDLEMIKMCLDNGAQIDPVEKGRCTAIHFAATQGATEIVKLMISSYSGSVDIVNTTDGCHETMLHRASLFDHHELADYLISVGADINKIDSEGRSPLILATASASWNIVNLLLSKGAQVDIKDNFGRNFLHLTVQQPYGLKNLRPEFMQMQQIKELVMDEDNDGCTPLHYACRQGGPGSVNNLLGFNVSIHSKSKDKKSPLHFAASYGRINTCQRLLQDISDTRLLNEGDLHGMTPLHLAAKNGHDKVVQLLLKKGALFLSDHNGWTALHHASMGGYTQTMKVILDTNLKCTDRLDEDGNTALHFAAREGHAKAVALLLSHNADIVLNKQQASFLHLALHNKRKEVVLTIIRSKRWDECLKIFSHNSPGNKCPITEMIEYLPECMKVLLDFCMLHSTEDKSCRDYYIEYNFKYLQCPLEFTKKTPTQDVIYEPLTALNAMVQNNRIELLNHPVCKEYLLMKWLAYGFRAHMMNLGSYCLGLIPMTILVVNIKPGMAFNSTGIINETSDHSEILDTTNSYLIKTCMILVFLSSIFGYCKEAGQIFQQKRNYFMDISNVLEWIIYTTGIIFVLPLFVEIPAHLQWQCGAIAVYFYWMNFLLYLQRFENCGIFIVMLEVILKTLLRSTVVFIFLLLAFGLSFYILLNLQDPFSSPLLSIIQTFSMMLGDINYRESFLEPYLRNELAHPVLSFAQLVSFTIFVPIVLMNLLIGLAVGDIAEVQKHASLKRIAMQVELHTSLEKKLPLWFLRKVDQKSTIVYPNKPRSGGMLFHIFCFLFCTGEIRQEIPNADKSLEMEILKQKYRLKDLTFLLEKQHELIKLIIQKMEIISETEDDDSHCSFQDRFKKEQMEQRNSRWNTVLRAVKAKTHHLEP
Experimental: Human embryonic kidney 293 (HEK293) cells were cultured in DMEM containing 10% (vol/vol) heat-inactivated fetal bovine serum, 100 units ml^−1 penicillin–streptomycin and 2 mM L-glutamine at 37 °C in a humidity-controlled sterile incubator with 5% CO2. All cell culture reagents were purchased from Life Technologies. HEK293 cells were transfected transiently with the corresponding plasmids using lipofectamine 2000 (Life Technologies). Transfection efficiency was monitored by co-transfecting EGFP plasmid which codes for the enhanced green fluorescent protein. Electrophysiological recordings were performed between 24 and 36 h after transfection.
(§1) Whole-cell patch-clamp recordings in DRG neurons (small diameter, […]) and HEK293 cells were operated at room temperature (23–25 °C) using EPC-10 amplifier and Patch Master Software (HEKA). […] Currents were sampled at 10 kHz and low-pass filtered at 2.9 kHz. The internal solution was as follows (in mM): 140 CsCl, 10 HEPES, 5 EGTA, 0.1 CaCl2 and 1 MgCl2, with pH adjusted to 7.2 by CsOH and osmolarity 295–300 mOsm. The calcium-free external solution contained (in mM) 140 NaCl, 5 KCl, 0.5 EGTA, 1 MgCl2, 10 Glucose and 10 HEPES, with pH adjusted to 7.4 by NaOH and osmolarity 300–310 mOsm. The 0.5 mM EGTA was replaced by 2 mM CaCl2 for the recordings in DRG neurons. TRPA1 currents development was monitored with repetitive injections of 300 ms duration voltage ramps from −100 to +100 mV every 2 s and the holding potential was set to 0 mV for 50 ms, existing in both sides of the voltage ramp. To record inward currents in DRG neurons, we conducted voltage clamp at holding membrane potential of −70 mV. Solutions were switched using a gravity-fed continuous focal perfusion system.

mouse DRG neurons [2] = assay: Single-cell calcium imaging (Fura-2/AM) of isolated DRG neurons; type: cell-based
Experimental: (§2) DRG neurons were isolated from young C57 BL/6 mice (4–5 weeks). The sections of thoracic and lumbar DRG neurons were rapidly isolated in calcium and magnesium-free PBS with low temperature conditions (ice-bath environment). The isolated tissues were cut into pieces with scissor and incubated for 30 min with 0.1% collagenase and 0.025% trypsin which were diluted by DMEM-F12 at 37 °C. After digestion, neurons were gently dissociated using Pasteur pipettes and then plated onto poly-D-lysine pre-coated glass cover slips. DRG neurons were cultured for 24 h before use.
Calcium influx signals were monitored using the ratio metric fluorescent indicator dye Fura-2/AM at room temperature (23–25 °C). Cells were incubated with 2 μM Fura-2/AM, which was generated by diluting the stock solution with normal external solution, for 30 min at 37 °C. […] The maximum excitation wave length of Fura-2/AM was changed to 340 nm from 380 nm when combined with calcium ions. Fura-2/AM was excited at 340 and 380 nm with a rapid switching monochromator obtained from TILL Photonics, and the mean fluorescence intensity ratios (F340/F380) reflected real-time changes in the concentration of intracellular free calcium ions. The external solution used in the DRG whole-cell patch-clamp recordings was also used for calcium imaging. Solutions were switched using a gravity-fed continuous focal perfusion system.

mouse DRG neurons [3] = assay: Whole-cell patch-clamp of small-diameter DRG neurons; type: cell-based
Experimental: as §2, §1

mice [4] = assay: Behavioral testing of mice (paw-licking time after intraplantar injection); type: in vivo, mouse; conditions: WT mice; AITC 10 μl 5%, malathion 10 μl 30%, intraplantar
Experimental: The chosen mice were allowed to acclimate to the experimental environment for at least 2 h before testing. Intraplantar injection of 5% AITC and 30% malathion (10 μl) was achieved using separate injectors. Spontaneous pain evoked by the compounds was assessed by measuring the time (s) the mice spent on licking. For the HC030031 groups, 200 mg kg^−1 HC030031 was intragastrically administered, and then the test was conducted after 1 h. The testing phase was divided into two parts: 0–10 min and 11–60 min.

mTRPA1 = mTRPA1 (Mus musculus, UniProt Q8BLA8); assay: FDSS Ca2+-influx assay, HEK293 cells stably expressing mTRPA1; type: cell-based; design: expressed in transfected cells
Chain of mTRPA1 (Q8BLA8 whole entry): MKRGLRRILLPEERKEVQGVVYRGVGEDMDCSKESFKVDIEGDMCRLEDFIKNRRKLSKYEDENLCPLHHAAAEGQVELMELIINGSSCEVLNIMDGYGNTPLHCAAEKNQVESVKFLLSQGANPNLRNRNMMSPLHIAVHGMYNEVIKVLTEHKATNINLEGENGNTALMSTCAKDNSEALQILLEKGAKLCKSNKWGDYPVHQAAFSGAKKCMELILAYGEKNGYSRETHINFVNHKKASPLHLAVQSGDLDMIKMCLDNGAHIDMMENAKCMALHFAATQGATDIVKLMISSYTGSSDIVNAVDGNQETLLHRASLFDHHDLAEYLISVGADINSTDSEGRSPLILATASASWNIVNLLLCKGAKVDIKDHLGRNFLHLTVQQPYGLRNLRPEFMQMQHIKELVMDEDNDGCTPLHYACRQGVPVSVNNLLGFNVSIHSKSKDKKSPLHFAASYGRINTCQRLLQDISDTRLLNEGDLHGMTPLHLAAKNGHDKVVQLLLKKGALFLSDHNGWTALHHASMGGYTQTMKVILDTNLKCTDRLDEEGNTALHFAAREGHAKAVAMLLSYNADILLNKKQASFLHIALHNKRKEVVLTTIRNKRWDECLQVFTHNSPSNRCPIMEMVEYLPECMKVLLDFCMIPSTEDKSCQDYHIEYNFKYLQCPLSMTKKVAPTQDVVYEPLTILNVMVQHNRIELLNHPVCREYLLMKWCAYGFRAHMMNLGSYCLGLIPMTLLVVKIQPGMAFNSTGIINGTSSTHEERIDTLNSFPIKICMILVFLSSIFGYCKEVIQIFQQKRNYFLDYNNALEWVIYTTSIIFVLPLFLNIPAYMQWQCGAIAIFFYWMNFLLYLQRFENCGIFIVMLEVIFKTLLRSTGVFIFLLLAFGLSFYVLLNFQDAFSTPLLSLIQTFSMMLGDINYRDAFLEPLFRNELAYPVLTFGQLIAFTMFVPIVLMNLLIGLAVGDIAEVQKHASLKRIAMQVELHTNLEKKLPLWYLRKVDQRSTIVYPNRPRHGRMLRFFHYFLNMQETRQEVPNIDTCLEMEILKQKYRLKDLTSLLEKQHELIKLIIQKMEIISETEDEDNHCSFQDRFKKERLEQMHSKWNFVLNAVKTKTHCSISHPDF
Experimental: Ca^2+-influx assays were carried out using HEK293 cells stably expressing mTRPA1 channels with an FDSS screening system (Hamamatsu, Japan). Before the start of the assay, HEK293-mTRPA1 cells were plated onto poly-D-Lysine (40 μg ml^−1) coated 96-well black clear bottom plate with the cell density of 300 000 cells per milliliter in DMEM supplemented with 10% (vol/vol) fetal bovine serum, 200 μg ml^−1 Hygromycin B, 15 μg ml^−1 Blasticidin S HCL and 0.3 μg ml^−1 doxycycline, which could induce the expression of mTRPA1. The 96-well plate was then put in sterile incubator overnight. The following day, Ca^2+ influx dye Fluo-4/AM stock was diluted to 2 μM with bath solution, and added (50 μl per well) in place of the culture medium. The plate was then incubated to load the Fluo-4/AM into cells for 60 min at 37 °C in dark environment. During the incubation, we prepared the compound plate (96-well) and the margin of plate was set as blank control due to the fringing effect. At the end of dye loading period, the remnant dye was removed using bath solution to wash the 96-well cell plate twice and then add 80 μl bath solution per well.

cTRPA1 = target: T2, cTRPA1 (Gallus gallus, UniProt W8VTH6); assay: Whole-cell patch-clamp, HEK293 cells expressing cTRPA1; type: cell-based, chicken
T2 sequence (W8VTH6 1-1126): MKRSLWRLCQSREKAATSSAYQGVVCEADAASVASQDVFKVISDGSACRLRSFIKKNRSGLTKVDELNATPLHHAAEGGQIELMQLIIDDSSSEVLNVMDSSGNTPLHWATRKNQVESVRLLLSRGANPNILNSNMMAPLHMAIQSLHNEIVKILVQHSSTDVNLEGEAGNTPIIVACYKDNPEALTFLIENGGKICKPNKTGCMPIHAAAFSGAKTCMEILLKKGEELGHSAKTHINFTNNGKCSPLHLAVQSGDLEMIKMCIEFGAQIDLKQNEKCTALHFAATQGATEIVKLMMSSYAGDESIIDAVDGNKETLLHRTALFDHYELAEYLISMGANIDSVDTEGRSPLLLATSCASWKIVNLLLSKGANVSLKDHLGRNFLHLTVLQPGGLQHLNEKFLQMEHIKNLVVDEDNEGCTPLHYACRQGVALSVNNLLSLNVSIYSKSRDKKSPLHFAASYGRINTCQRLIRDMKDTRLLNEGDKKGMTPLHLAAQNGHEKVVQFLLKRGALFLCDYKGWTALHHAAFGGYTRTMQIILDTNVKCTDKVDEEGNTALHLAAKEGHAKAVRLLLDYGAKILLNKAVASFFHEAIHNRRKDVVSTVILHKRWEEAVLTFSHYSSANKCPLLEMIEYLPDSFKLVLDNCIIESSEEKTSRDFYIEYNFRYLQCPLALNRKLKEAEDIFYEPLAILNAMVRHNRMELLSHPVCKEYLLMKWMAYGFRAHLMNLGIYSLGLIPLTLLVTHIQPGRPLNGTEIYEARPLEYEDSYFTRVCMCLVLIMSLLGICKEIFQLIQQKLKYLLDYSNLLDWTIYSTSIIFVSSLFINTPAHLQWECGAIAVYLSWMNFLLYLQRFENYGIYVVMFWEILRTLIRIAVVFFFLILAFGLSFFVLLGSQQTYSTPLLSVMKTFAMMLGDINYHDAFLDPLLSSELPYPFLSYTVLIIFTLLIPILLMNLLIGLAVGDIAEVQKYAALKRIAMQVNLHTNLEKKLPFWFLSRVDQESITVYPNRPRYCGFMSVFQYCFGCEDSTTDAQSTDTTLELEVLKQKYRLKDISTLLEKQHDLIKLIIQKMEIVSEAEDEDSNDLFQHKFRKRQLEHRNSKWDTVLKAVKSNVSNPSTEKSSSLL
Experimental: All cell culture reagents were purchased from Life Technologies. HEK293 cells were transfected transiently with the corresponding plasmids using lipofectamine 2000 (Life Technologies). Transfection efficiency was monitored by co-transfecting EGFP plasmid which codes for the enhanced green fluorescent protein. Electrophysiological recordings were performed between 24 and 36 h after transfection.
as §1, with “The internal solution was as follows (in mM): 140 CsCl, 10 HEPES, 5 EGTA, 0.1 CaCl2 and 1 MgCl2, with pH adjusted to 7.2 by CsOH and osmolarity 295–300 mOsm.” left out

hens = type: in vivo, hen
Experimental: The chosen adult Hyline Brown hens were raised individually in stainless steel wire cages. After 7 days of acclimatization, the chosen hens were randomly divided into groups (n=6–10 for each group). The hens in the delayed neuropathy groups were administered a single dose of 750 mg kg^−1 TOCP and repeated doses of 75 mg kg^−1 malathion by gavage. TOCP and malathion were dissolved in corn oil and administered at 0.65 ml kg^−1. In the HC030031 treatment groups, 100 mg kg^−1 HC030031 was administered by gavage daily beginning at day 0 or day 11. All hens were examined daily for signs of delayed neurotoxicity. A five-point graded scale was used to describe the clinical symptoms of delayed neuropathy, with 0 indicating normal ambulation; (1) suspected ataxia (lack of strength in the legs and tottering); (2) mild ataxia (slow, clumsy and unsteady gait); (3) gross ataxia (waddling gait and staggering and falling despite being active); (4) mild paralysis (typical paralytic posture and lame appearance); and (5) complete paralysis (unable to maintain posture, stand up or move at all), as described previously.

SMILES: C=CCN=C=S [AITC, allyl isothiocyanate]
- nerve fiber damage around the injection site (TEM) (mice [1]): damage of the myelin sheath
- activation of hTRPA1 whole-cell currents (hTRPA1): activated
- [Ca2+]i response of DRG neurons from Trpa1−/− mice (mouse DRG neurons [2]; Trpa1−/− neurons): thoroughly unresponsive
- neurons displaying a robust increase in [Ca2+]i (mouse DRG neurons [2]; wild-type small-diameter neurons, sequential application of AITC and malathion, 197/451): ~ 44%
- action potential firing in WT small-diameter neurons (mouse DRG neurons [3]; 100 μM): bursts of action potentials
- currents in neurons from Trpa1−/− mice (mouse DRG neurons [3]; Trpa1−/− neurons, 17/17): failed to induce currents
- nocifensive behavior (paw-licking) after plantar injection (mice [4]): nociception-like response

SMILES: O=S(=O)(Cl)c1ccccc1 [Benzenesulfonyl chloride]
- activation of hTRPA1 whole-cell currents by NTE inhibitors (hTRPA1): activated

SMILES: CCSC(=O)N(CC(C)C)CC(C)C [Butylate]
- activation of hTRPA1 whole-cell currents by NTE inhibitors (hTRPA1): activated

SMILES: CCOC(=O)OCC [Ethyl carbonate]
- activation of hTRPA1 whole-cell currents by NTE inhibitors (hTRPA1): activated

SMILES: O=S(=O)(Cl)Cc1ccccc1 [Phenylmethanesulfonyl chloride]
- activation of hTRPA1 whole-cell currents by NTE inhibitors (hTRPA1): activated

SMILES: CCOP(=S)(OCC)Oc1nc(Cl)c(Cl)cc1Cl [chlorpyrifos]
- activation of hTRPA1 whole-cell currents (hTRPA1): activated
- EC50 (mTRPA1; HEK293 cells, change in [Ca2+]i, read-out: EC50, activation of mTRPA1): 10 to 40 µM

SMILES: CNCC[C@H](Oc1cccc2ccccc12)c1cccs1 [duloxetine]
- IC50 (cTRPA1; manual whole-cell patch-clamp, TOCP-induced currents, read-out: IC50 on cTRPA1 channels): 4.69 ± 1.4 µM
- effect on TOCP-induced symptoms (OPIDN scores) (hens; in vivo): significantly alleviated

SMILES: COP(=S)(OC)Oc1ccc(SC)c(C)c1 [fenthion]
- activation of hTRPA1 whole-cell currents (hTRPA1): activated
- EC50 (mTRPA1): 10 to 40 µM

SMILES: CN1CCC(=C2c3ccccc3CC(=O)c3sccc32)CC1 [ketotifen]
- IC50 (cTRPA1): 5.79 ± 1.18 µM
- effect on TOCP-induced symptoms (OPIDN scores) (hens; hens, 100 mg kg−1 daily by gavage from day 0): significantly alleviated

SMILES: COc1nn(CSP(=S)(OC)OC)c(=O)s1 [methidathion]
- activation of hTRPA1 whole-cell currents (hTRPA1): activated
- EC50 (mTRPA1): 10 to 40 µM

SMILES: COP(=O)(OC)OC(Br)C(Cl)(Cl)Br (stereo not shown) [naled]
- activation of hTRPA1 whole-cell currents (hTRPA1): activated
- EC50 (mTRPA1): 10 to 40 µM

SMILES: CCOP(=S)(OCC)O/N=C(\C#N)c1ccccc1 [phoxim]
- activation of hTRPA1 whole-cell currents (hTRPA1): activated
- EC50 (mTRPA1): 10 to 40 µM
